Experimental data as given in patent US8361970B2, “Growth factor binding molecules” (University of South Florida, priority 2000, dated 2013).
Several values for one entry are separate records, joined by “and”; a condition that tells them apart may be missing. Equal entries are not always repeated. Where two headings read alike, the source gives them in different places.

Columns and labels:
PDGF-BB = molecular target: T1, PDGF-BB (Homo sapiens, UniProt P01127); test: Binding to PDGF-BB by native PAGE / SDS-PAGE gel electrophoresis
T1 construct: host or cells: NIH 3T3 cells carry the receptor
Description: GFB-111 (50 μM) is incubated with buffer A (PBS 0.5% BSA) or PDGF-BB (1, 3 and 4µM in buffer A) at room temperature for 10 minutes. The mixtures are then loaded onto a native 4% PAGE. The gel is then stained with silver nitrate. Duplicate lanes are run in the same gel but are not stained. Bands corresponding to the boxed area are cut out of the lanes of the gel that is not stained, denatured with SDS-PAGE loading buffer (Tris 100 mM pH 6.8, 15% Glycerol, 3% SDS, 7.5% b-mercaptoethanol, 0.05% bromophenol blue), loaded onto a 4% SDS-PAGE gel and silver stained.
The structure activity relationship results in Table 1 are consistent with GFB-111 being a PDGF-BB binding molecule. […] PDGF to its receptor on NIH 3T3 cells is determined by gel electrophoresis by mixing GFB-111 with PDGF-BB. […] FIG. 2B illustrates that the GFB-111 standard (lane 5) as well as the GFB-111 band cut out of FIG. 2A gel (lane 1) migrates on SDS-PAGE as a single band that elutes faster than the dye front. Their separation on SDS-PAGE (lane 2) is confirmed by mixing PDGF-BB standard (lane 4) and GFB-111 standard (lane 5).
GFB-111 is incubated with increasing concentrations of PDGF-BB and the mixtures are then loaded onto native PAGE. […]

rat glioma C6 = test: Antitumor efficacy, C6 tumor in nude mice; format: in vivo
[1] = system: PDGF-AA stimulated PDGF receptor phosphorylation and Erk1/Erk2 activation; test: PDGF-AA stimulation of PDGF receptor phosphorylation and Erk1/Erk2 activation in NIH 3T3 cells; format: cell-based; conditions: NIH 3T3, PDGF-AA 10 ng/ml
Description: (§1) Starved NIII 3T3 cells (PDGF-BB and PDGF-AA), NIH 3T3 cells overexpressing either EGFR (EGF) or Flk-1 (VEGF) are pre-treated with the indicated concentrations of GFB-111 for 5 minutes before 10 minutes of stimulation with PDGF-BB (10 ng/ml), PDGF-AA (10 ng/ml), EGF (100 ng/ml) and VEGF (50 ng/ml). Cell lysates are run on SDS-PAGE gels, then transferred to nitrocellulose and Western blotted with anti-phosphotyrosine (4G 10) or anti-phosphorylated Erk1/Erk2 (New England Biolabs).

IGF-1 = molecular target: T2, IGF-1 (Homo sapiens, UniProt P05019); test: Inhibition of [125I]-IGF-1 binding to NIH 3T3 cells overexpressing IGF-1R; conditions: 10 μM
T2 construct: host or cells: NIH 3T3 cells transfected with the IGF-1R gene carry the receptor
Description: NIH 3T3 (PDGF) or NIH 3T3 cells overexpressing either EGFR (EGF), IGFR (IGF) or Flk-1 (VEGF), are incubated with [^125I]-PDGF, [^125I]-EGF, [^125I]-IGF or [^125I]-VEGF, respectively (50,000 cpm per well) and increasing concentrations of GFB-111 or GFB-116. Cells are incubated at 4° C. for 1-3 h. After discarding media, the cells are washed 3 times with PBS and three times with Tris 25 mM pH 8.0, 1% T-X-100, 10% glycerol, 1% SDS. Lysates plus wash are counted. Excess of cold growth factors is used to obtain non-specific binding levels.
Whether GFB 111 can block [^125I]-PDGF-BB specific binding in NIH 3T3 cells is determined by pre-treatment of the PDGF-BB with increasing concentrations of GFB-111. FIG. 2C illustrates that in the absence of GFB-111, [^125I]-PDGF-BB is bound by NIH3T3 cells. However, pre-treatment with increasing concentrations of GFB-111, results in a concentration-dependent decrease in PDGF-BB binding.

[2] = system: VEGF-stimulated Flk-1 tyrosine phosphorylation; test: Inhibition of VEGF-stimulated Flk-1 tyrosine phosphorylation in Flk-1/3T3 cells; format: cell-based
Description: as §1
In order to identify molecules that would bind vascular endothelial growth factor (VEGF), Flk-1/3T3 cell-based assay is used that relies on VEGF-stimulation of its receptor, Flk-1, tyrosine phosphorylation and subsequent MAP-kinase activation. The assay used herein identical to that used for PDGF, except that NIH 3T3 cells that overexpress Flk-1 are used. GFB-116, which has four identical loops with the sequence GKGK (SEQ ID NO. 10) is shown to be very potent and selective toward blocking the ability of VEGF to stimulate Flk-1 tyrosine phosphorylation and subsequent MAP-kinase activation as measured by phospho erk-1 and erk-2 also referred to in the Table as p42 and p44 (Table 4A). A preferred embodiment of the invention is a compound that binds to a vascular endothelial growth factor, of the general structure III (above) in which R is n-butyl, n-propyl, or benzyl, and X comprise covalently attached identical cyclic peptide loops wherein R1, R2, R3, and R4 are each amino acid side chains, as broadly defined above, that define a tetrapeptide sequence, wherein said tetrapeptide is covalently attached at the amino and carboxy termini of said tetrapeptide to 3-aminomethyl-5-aminobenzamide linking group, and wherein said tetrapeptide sequence is GKGK (SEQ ID NO. 10), GDGY (SEQ ID NO. 6), or functionally related derivatives thereof.

[3] = system: human medulloblastoma DaOY; test: Antitumor efficacy, DaOY xenograft in nude mice; format: in vivo; conditions: 50 mg per kg per day
[4] = system: EGF-stimulated EGFR tyrosine phosphorylation and Erk1/Erk2 activation; test: EGF-stimulated EGFR tyrosine phosphorylation and Erk1/Erk2 activation in NIH 3T3 cells overexpressing EGFR; format: cell-based; conditions: GFB-111 at concentrations as high as 100 μM
Description: as §1

[5] = system: PDGF-BB stimulated DNA synthesis in NIH 3T3 cells; format: cell-based; conditions: 3 h
Description: Starved NIH 3T3 or NIH 3T3 overexpressing IGFR are treated for 16 hours with indicated concentrations of GFB-111 and either 10 ng/ml PDGF or 50 ng/ml IGF-1, respectively, then labeled for 2 hr (NIH 3T3) or 4 hr (IGFR) with ^3H-thymidine. Cells are then washed in PBS, lysed in 0.1N NaOH and spotted onto glass fiber filters. DNA is precipitated with ice cold ethanol then ^3H-thymidine incorporation quantified by scintillation counting.
The selectivity of PDGF-induced cellular responses, is evaluated by the selectivity of GFB-111 to inhibit growth factor-stimulated DNA synthesis using a [^3H]-thymidine incorporation assay. […] In contrast GFB-111 is ineffective at inhibiting IGF-1-stimulated DNA synthesis at concentrations as high as 100 μM (FIG. 4).

[6] = Flk-1/3T3, VEGF stimulated, read-out: (IC50) Inhibition Flk-1-Y-P

T1 sequence (P01127 82-190 limits assumed): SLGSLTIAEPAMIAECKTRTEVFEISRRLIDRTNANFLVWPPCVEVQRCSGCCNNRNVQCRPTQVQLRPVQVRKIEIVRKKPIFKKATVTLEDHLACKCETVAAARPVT
T2 sequence (P05019 49-118 limits assumed, species assumed): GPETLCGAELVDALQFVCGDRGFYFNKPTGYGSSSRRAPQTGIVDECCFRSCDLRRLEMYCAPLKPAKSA

Row | Molecule | Binding to PDGF-BB (complex on native PAGE) (PDGF-BB) | % Tumor growth inhibition (rat glioma C6; C6, 50 mpk, day in parentheses in cell) | Inhibition of C6 tumor growth in nude mice (rat glioma C6; mouse, in vivo) | PDGF-AA stimulation of PDGF receptor phosphorylation and Erk1/Erk2 activation [1] | Effect on [125I]-IGF-1 binding (IGF-1) | IC50 [2, 6] | IC50 ([2]; read-out: IC50 VEGF-stimulated Flk-1 tyrosine phosphorylation and MAPK activation) | Growth of DaOY tumors [3] | Effect on EGF-stimulated EGFR tyrosine phosphorylation and Erk1/Erk2 activation [4] | IC50 [5]
1 | CCCCOc1c2cc(C(=O)Nc3cc4cc(c3)C(=O)NCC(=O)N[C@@H](CC(=O)O)C(=O)NCC(=O)N[C@@H](Cc3ccc(O)cc3)C(=O)NC4)cc1Cc1cc(C(=O)Nc3cc4cc(c3)C(=O)NCC(=O)N[C@@H](CC(=O)O)C(=O)NCC(=O)N[C@@H](Cc3ccc(O)cc3)C(=O)NC4)cc(c1OCCCC)Cc1cc(C(=O)Nc3cc4cc(c3)C(=O)NCC(=O)N[C@@H](CC(=O)O)C(=O)NCC(=O)N[C@@H](Cc3ccc(O)cc3)C(=O)NC4)cc(c1OCCCC)Cc1cc(C(=O)Nc3cc4cc(c3)C(=O)NCC(=O)N[C@@H](CC(=O)O)C(=O)NCC(=O)N[C@@H](Cc3ccc(O)cc3)C(=O)NC4)cc(c1OCCCC)C2 [GFB-111] | does indeed contain both PDGF-BB and GFB-111 | 54% (15) and 64% (15) and 46% (18) | effective | blocked | lack of significant effects | 5 µM | 10 µM | minimally affected | does not affect | 6.5 µM
2 | GKGK [GFB-116] | does not bind | – | – | – | – | 0.3 µM | – | – | – | –
